Laboratory results from US11987571B1, “Ethyl 2-[9-(6-chloro-2-hydroxyquinolin-3-yl)-3,6-diphenyl-1,8-dioxo-3,4,9,10-tetrahydroacridine-10-yl]-acetate as an antimicrobial compound” (KING FAISAL UNIVERSITY, priority 2023, dated 2024).

What was measured:
[1] = tested on: Staphylococcus aureus; assay: Antimicrobial activity by agar dilution, St. Aereus; format: cell-based; conditions: after 10, 20, 40 and 60 minutes at all dilutions 1:100, 1:200, 1:400, and 1:800
Protocol: (§1) The antibacterial properties of the synthesized compound (ethyl 2-[9-(6-chloro-2-hydroxyquinolin-3-yl)-3,6-diphenyl-1,8-dioxo-3,4,9,10-tetrahydroacridine-10-yl]-acetate) were studied by the method of agar dilution. Test solutions of each compound was prepared in concentration of 1% using dimethylformamide as a solvent. Then they were diluted in physiological solution to obtain the final experimental dilutions of 1:100, 1:200, 1:400, and 1:800. The effect of these substances were compared with furacillin in a controllable study. The testing microbes used were gram positive bacteria Staphylococcus aureus, gram negative bacteria Pseudomonas aeruginosa, Escherichia coli, and Candida albicans fungus. The experiments used for this survey were meat-pentonlu agar (EPA) for cultivation of bacteria and Saburo environment for fungi. Each experiment used 1 mL of test solution on each plate for […]. Two drops of emulsified with microbes feel were added. All experimental samples were taken from the agar after 10, 20, 40, 60 minutes in the environment on the basis of Patrk planted. Bacteria were cultivated at a temperature of 37° C. for 1 day and the mushroom was kept in a thermostat for […] at a temperature of 28° C. Then results were checked. Those of control and the antimicrobial activity for the synthesized compounds are listed in Table 1 below, with furacillin serving as a reference.

[2] = tested on: Escherichia coli; assay: Antimicrobial activity by agar dilution, E. Coli; format: cell-based; conditions: after 10, 20, 40 and 60 minutes at all dilutions 1:100, 1:200, 1:400, and 1:800
Protocol: as §1

[3] = tested on: Pseudomonas aeruginosa; assay: Antimicrobial activity by agar dilution, Ps. aeruginosa; format: cell-based; conditions: after 10, 20, 40 and 60 minutes at all dilutions 1:100, 1:200, 1:400, and 1:800
Protocol: as §1

[4] = tested on: Candida albicans; assay: Antimicrobial activity by agar dilution, Candida albicans; format: cell-based; conditions: after 10, 20, 40 and 60 minutes at all dilutions 1:100, 1:200, 1:400, and 1:800
Protocol: as §1

melting point: 222 °C
SMILES: CCOC(=O)CN1C2=C(C(=O)CC(c3ccccc3)C2)C(c2cc3cc(Cl)ccc3nc2O)C2=C1CC(c1ccccc1)CC2=O (centres unmarked) [ethyl 2-[9-(6-chloro-2-hydroxyquinolin-3-yl)-3,6-diphenyl-1,8-dioxo-3,4,9,10-tetrahydroacridine-10-yl]-acetate]
inhibition activity compared with Furacilin [1]: higher inhibition activity | inhibition activity compared with Furacilin [2]: higher inhibition activity | inhibition activity compared with Furacilin [3]: higher inhibition activity | inhibition activity compared with Furacilin [4]: higher inhibition activity
